Source: PMC8759724 (Journal of Enzyme Inhibition and Medicinal Chemistry, 2021)

Legend:
[1] = molecular target: WT PfDHFR (Plasmodium falciparum, UniProt P13922, N108S/R59C); assay: Differential scanning fluorimetry; assay type: binding; conditions: DSF, apo PfDHFR (no NADPH added with the ligand)
[2] = molecular target: WT PfDHFR (Plasmodium falciparum, UniProt P13922); assay: PfDHFR activity assay; assay type: biochemical

Nc1nc(=O)c2c([nH]1)NCC(CNc1ccc(C(=O)N[C@@H](CCC(=O)O)C(=O)O)cc1)=N2 [DHF, dihydrofolate]
ΔTm (melting temperature variation) [1]: minor melting temperature variations

NC(=O)C1=CN([C@@H]2O[C@H](COP(=O)(O)OP(=O)(O)OC[C@H]3O[C@@H](n4cnc5c(N)ncnc54)[C@H](OP(=O)(O)O)[C@@H]3O)[C@@H](O)[C@H]2O)C=CC1 [NADPH]
ΔTm (melting temperature variation) [1]: +4 °C

NC(=O)Nc1cccc(C(F)(F)F)c1 [fragment 148, [3-(trifluoromethyl)phenyl]urea]
IC50 [2]: 464 µM

tetrahydrofolate [THF]
ΔTm (melting temperature variation) [1]: minor melting temperature variations
